Values of other authors, collected in patent US20130122099A1, “POLYETHYLENE GLYCOL-COATED SODIUM CARBONATE AS A PHARMACEUTICAL EXCIPIENT AND COMPOSITIONS PRODUCED FROM THE SAME” (priority 2008, published 2013).
Like-named read-outs stand apart in the source and are kept apart here.

Row | pKa | pKa (listed as daunorubicin) | Structure (SMILES)
1 | 8.5 | – | CCCCOc1cc(C(=O)NCCN(CC)CC)c2ccccc2n1 [Dibucaine]
2 | 9.2 | – | CC(C)(C)NC[C@H](O)COc1nsnc1N1CCOCC1 [Timolol]
3 | 7.7 | – | CN1CCN(C(c2ccccc2)c2ccccc2)CC1 [Cyclizine]
4 | 6.6 | – | CC[C@@H]1C(=O)OC[C@@H]1Cc1cncn1C [Pilocarpine]
5 | 9.3 | – | CCC1(C)CC(=O)NC1=O (stereo not shown) [ethosuximide]
6 | 7.7 | – | CN1CCN2c3ncccc3Cc3ccccc3C2C1 (stereo not shown) [Mirtazapine]
7 | 9.4 | – | CN[C@H]1CC[C@@H](c2ccc(Cl)c(Cl)c2)c2ccccc21 [Sertraline]
8 | 8.9 | – | COc1ccc(CN(CCN(C)C)c2ccccn2)cc1 [mepyramine]
9 | 9.2 | – | CN1C(=O)CC(c2ccccc2)C1=O (stereo not shown) [phensuximide]
10 | 7.83 | – | COc1cc(N)c(Cl)cc1C(=O)NC1CCN(CCCOc2ccc(F)cc2)CC1OC (stereo not shown) [Cisapride]
11 | 8.7 | – | CC(CCc1ccccc1)NCC(O)c1ccc(O)c(C(N)=O)c1 (stereo not shown) [Labetalol]
12 | 8.33 | – | CCC1(c2ccccc2)NC(=O)N(C)C1=O (stereo not shown) [mephenytoin]
13 | 8.2 | – | CN1CCCCC1CCN1c2ccccc2Sc2ccc([S+](C)[O-])cc21 (stereo not shown) [Mesoridazine]
14 | 7.2 | – | c1ccc(CN(CC2=NCCN2)c2ccccc2)cc1 [antazoline]
15 | 7.4 | – | CC1(C)S[C@@H]2[C@H](NC(=O)[C@H](N)c3ccc(O)cc3)C(=O)N2[C@H]1C(=O)O [amoxicillin]
16 | 7.7 | – | Cc1nccn1CC1CCc2c(c3ccccc3n2C)C1=O (stereo not shown) [Ondansetron]
17 | 9.65 | – | CN1CCN(C(c2ccccc2)c2ccc(Cl)cc2)CC1 (stereo not shown) [chlorcyclizine]
18 | 8.75 | – | CN1CCC(=C2c3ccccc3CC(=O)c3sccc32)CC1 [Ketotifen]
19 | 8.0 | – | OC1(c2ccc(Cl)c(C(F)(F)F)c2)CCN(CCCC(c2ccc(F)cc2)c2ccc(F)cc2)CC1 [penfluridol]
20 | 8.3 | – | O=c1[nH]c(=O)n([C@H]2C[C@H](O)[C@@H](CO)O2)cc1I [Idoxuridine]
21 | 9.4 | – | CN1C2CCCC1CC(NC(=O)c1nn(C)c3ccccc13)C2 (stereo not shown) [Granisetron]
22 | 8.7 | – | CCN(CC)CCCC(C)Nc1cc(OC)cc2cccnc12 (stereo not shown) [Pamaquine]

Row | pKa | pKa (listed as daunorubicin) | Structure (SMILES)
23 | 7.4 | – | Cc1cc(C)nc(NS(=O)(=O)c2ccc(N)cc2)n1 [Sulfamethazine]
24 | 7.32 | – | O=C1NCN(c2ccccc2)C12CCN(CCCC(c1ccc(F)cc1)c1ccc(F)cc1)CC2 [fluspirilene]
25 | 7.2 | – | CCN(CC)C(=O)N[C@H]1C[C@@H]2c3cccc4[nH]cc(c34)C[C@H]2N(C)C1 [Terguride]
26 | 8.9 | – | NS(=O)(=O)c1cc2c(cc1C(F)(F)F)NCNS2(=O)=O [hydroflumethiazide]
27 | 8.3 | – | N#Cc1ccc2c(c1)N(CCCN1CCC(O)CC1)c1ccccc1S2 [Periciazine]
28 | 8.6 | – | OC(CNCC(O)C1CCc2cc(F)ccc2O1)C1CCc2cc(F)ccc2O1 (stereo not shown) [Nebivolol]
29 | 7.9 | – | CN(C)CCOC(=O)C(c1ccccc1)C1(O)CCCC1 (stereo not shown) [cyclopentolate]
30 | 8.7 | – | CNCCC(Oc1ccc(C(F)(F)F)cc1)c1ccccc1 (stereo not shown) [Fluoxetine]
31 | 8.3 | – | CN1CCN2c3ccccc3Cc3ccccc3C2C1 (stereo not shown) [Mianserine]
32 | 7.5 | – | CCC[C@@H]1C[C@@H](C(=O)N[C@@H]([C@H]2O[C@H](SC)[C@H](O)[C@@H](O)[C@H]2O)[C@@H](C)O)N(C)C1 [lincomycin]
33 | 8.2 | – | CN(C)CCC=C1c2ccccc2COc2ccccc21 [Doxepin]
34 | 7.7 | – | Cc1ccc2c(c1)c1c3n2CCNC3CCC1 (stereo not shown) [Pirlindole]
35 | 7.3 | – | CC(=O)/N=c1/sc(S(N)(=O)=O)nn1C [Methazolamide]
36 | 7.1 | – | OCCOCCN1CCN(C(c2ccccc2)c2ccc(Cl)cc2)CC1 (stereo not shown) [hydroxyzine]
37 | 7.5 | – | O=C1CN(/N=C/c2ccc(-c3ccc([N+](=O)[O-])cc3)o2)C(O)=N1 [dantrolene]
38 | 9.0 | – | Clc1ccc2nsnc2c1NC1=NCCN1 [Tizanidine]
39 | 7.8 | – | COc1ccc2c(c1OC)C(=O)O[C@@H]2[C@H]1c2c(cc3c(c2OC)OCO3)CCN1C [Noscapine]
40 | 7.2 | – | O=C1CC2(CCCC2)CC(=O)N1CCCCN1CCN(c2ncccn2)CC1 [Buspirone]
41 | 8.2 | 8.25 | COc1cccc2c1C(=O)c1c(O)c3c(c(O)c1C2=O)C[C@@](O)(C(C)=O)C[C@@H]3O[C@H]1C[C@H](N)[C@H](O)[C@H](C)O1 [daunomycin]
42 | 8.0 | – | Cc1ccnc(NS(=O)(=O)c2ccc(N)cc2)n1 [Sulfamerazine]
43 | 8.75 | – | CCn1cc(C(=O)O)c(=O)c2cc(F)c(N3CCNCC3)cc21 [norfloxacin]
44 | 7.94 | – | OCCN1CCN(CCCN2c3ccccc3Sc3ccc(Cl)cc32)CC1 [Perphenazine]

Row | Structure (SMILES) | pKa | pKa (listed as daunorubicin)
45 | C=CCN1CC[C@]23c4c5ccc(O)c4O[C@H]2C(=O)CC[C@@]3(O)[C@H]1C5 [Naloxone] | 7.82 | –
